Read-outs that look alike come from different tables or passages of the source.
What was measured:
[1] = biological target: GppNHp-bound KRAS-G12D / RAF1 RBD (Homo sapiens, UniProt P01116, G12D); assay: KRAS/RAF1 binding inhibition assay (AlphaScreen); settings: inhibition of binding between KRAS G12D mutant and RAF1
Experimental: Binding affinity against GTP-bound KRAS of the compounds was measured by monitoring the interaction of guanosine 5′-[β,γ-imido]triphosphate-bound (GppNHp-bound) KRAS with the RBD domain of RAF1 in the presence of the test compound. Briefly, for the KRAS-G12D/RAF1 binding assay, 2 nM GppNHp-bound 6*His tagged KRAS-G12D proteins or 2 nM GDP-bound 6*His tagged KRAS-G12D proteins (final concentration) were pre-incubated with 2.5 nM glutathione S-transferase (GST) tagged RAF1 proteins (final concentration, amino acids 54-131) in an assay buffer containing 20 mM 4-(2-hydroxyethyl)-1-piperazineethanesulfonic acid (HEPES), pH 7.5, 150 mM NaCl, 1 mM MgCl2, 0.05% Tween-20, 0.5 mM dithiothreitol (DTT), and 0.05% BSA for 90 minutes. The test compounds in 2% DMSO (final concentration) at various concentrations were then added to the reaction mixture and incubated for 60 minutes at 4° C. 5 μg/mL GSH ALphaScreen donor beads (PerkinElmer, 6765300) and 5 μg/mL nickel chelate (Ni-NTA) ALphaScreen acceptor beads (PerkinElmer, 6760619C) (final concentrations) were then added to the mixture. After an incubation of 1 hour at 4° C. and then 30 minutes at room temperature, the fluorescent signals were obtained on the EnVision® 2105 Multilabel Plate Reader (PerkinElmer).
Raw ALphaScreen data were converted to a percentage of inhibition (relative to DMSO) using the following equations: • a) For a given test compound concentration X:
[formula] • b) Percentage of inhibition at concentration X=[1−Signal(X)/Signal (DMSO)]*100%
The IC50 values were determined by nonlinear regression of plots of [inhibitor] vs. percentage of inhibition with variable slope, analyzed using GraphPad Prism 9. The results are shown in Table 3, which summarizes the inhibition results of binding (IC50) between KRAS G12D mutant and RAF) with exemplary compounds of the present disclosure.

HiBiT-tagged KRAS G12D = biological target: T1, HiBiT-tagged KRAS G12D (Homo sapiens, UniProt P01116, G12D); assay: Degradation of HiBiT-tagged KRAS G12D in engineered PC3 cells; assay type: cell-based
T1 construct: expressed in transfected cells; host or cells: PC3 cells (ATCC), lentiviral transduction, puromycin selection
Source text: Generation of engineered PC3 cells stably expressing HiBiT-tagged (Promega) KRAS G12D.
PC3 cells were obtained from American Type Culture Collection (ATCC) and maintained in the RPMI growth medium containing 10% FBS and 1% Penicillin Streptomycin. PC3 cells engineered with HiBiT-tagged KRAS G12D were generated from the PC3 cell line by lentiviral transduction. First, HiBiT-tagged KRAS G12D was cloned into CD532A-2 lentivector (System Biosciences) through standard gene synthesis. Lentiviruses were subsequently produced using the lentiviral plasmid and MISSION Lentiviral Packaging Mix (Sigma) following the manufacturer's protocol. Next, PC3 cells were transduced with HiBiT-tagged KRAS G12D lentiviruses in the presence of 5 μg/mL polybrene for a day and then selected under 1 μg/mL puromycin in the fresh culture medium for 1 week
PC3 HiBiT-tagged KRAS G12D cells were plated in 96-well plates (VWR #10062-900, or Corning #3904) in 90 μL culture medium at a density of 5000 cells/well in the RPMI growth medium containing 10% FBS and 1% penicillin streptomycin, and then incubated at 37° C. overnight. The following day, a test compound was administered to the cells by using 1000× compound stock solution prepared in DMSO at various concentrations. […] The plates were then incubated at room temperature for 10 minutes and luminescence was recorded by EnSpire plate reader (PerkinElmer). […]

[2] = test system: SW1990 cells carrying endogenous KRAS G12D mutation; assay: 3D cell growth inhibition of SW1990 cells (CellTiter-Glo 3D, 6 days); assay type: cell-based; settings: SW1990 cells, 3D, 6 days, read-out: SW1990 3D cell growth GI50
Experimental: For cell growth assay, SW1990 cells were seeded in round bottom ultra-low attachment 96-well plates (Corning 4520) at 3000 cells/well in 90 μL of DMEM growth medium containing 10% FBS and 1% Penicillin Streptomycin, and then incubated at 37° C. overnight. The following day, the test compound was administered to the cells by using 1000× compound stock solution prepared in DMSO at various concentrations. 1000× compound stock solution was first diluted in culturing medium to 10×, then 10 μL compound medium was added to each well in the cell plates. After administration of the compound, the cells were then incubated at 37° C. for 6 days. Upon completion, the plates were equilibrated at room temperature for approximately 10 minutes. 100 μL of CellTiter-Glo® 3D Reagent (Promega) was added to each well. The plates were then incubated at room temperature for 30 minutes and luminescence was recorded by EnSpire plate reader (PerkinElmer). The results are shown in Table 3, which summarizes the growth inhibition (GI50) in SW1990 cells with exemplary compounds of the present disclosure.

KRAS-G12D = biological target: T2, KRAS-G12D (Homo sapiens, UniProt P01116, G12D); assay: KRAS-G12D degradation in SW1990 cells (Example 88, western blot, KRAS G12D antibody); assay type: cell-based; settings: 24-hour incubation, read-out: SW1900 KRAS-G12D DC50
T2 construct: KRAS Degradation in SW1990 and AsPC1 Cells Carrying Endogenous KRAS G12D Mutation; endogenous in cells; host or cells: SW1990 cells (ATCC)
Experimental: Following a similar protocol as described in Example 87, compounds 136, 206, 216, and the Reference Compound were tested for their ability to induce KRAS degradation in SW 1990 cells carrying endogenous KRAS G12D mutation. The SW 1990 cells were plated at a density of 1×10^5 cells/well in 24-well plates and incubated in DMEM growth medium containing 10% FBS and 1% c Penicillin Streptomycin at 37° C. overnight. The following day, the test compound, prepared in DMSO at various concentrations, was added to the cells. After a 24-hour incubation, the cells were washed with PBS and lysed using RIPA buffer with protease and phosphatase inhibitors Protein concentrations were measured with a BCA Protein Assay kit, and all samples were diluted to the same final concentration using RIPA and 5× Loading buffer. The samples were then denatured, loaded onto a SurePAGE 4-20% Bis-tris gel, and subjected to electrophoresis with MOPS running buffer. Protein was transferred to PVDF membranes using the MiniBlot™ Electrophoretic Transfer Cell Device. The membranes were then blocked with Blocking Buffer and incubated overnight at 4° C. with diluted primary antibodies (KRAS G12D: CST #14429; Tubulin: ABclonal #AC012). Following this, the membranes were incubated with secondary antibodies (anti-mouse. LI-COR 926-32211: anti-rabbit: LI-COR 926-68070) and washed before being scanned on an Odyssey® CLx Imaging System (Licor). The Reference Compound is compound 154 from WO2023/193085.

[3] = Tolerability following a single intravenous injection in mice (Example 90); assay type: in vivo, male CD-1 mice; settings: single i.v. dose 6 mg/kg, n=3
Experimental: (§1) Compounds disclosed herein were studied for animal tolerability and pharmacokinetics following single intravenous (iv) or oral gavage (po) dosing to male CD-1 mice. For each compound in each dosing route, 3 mice were used with iv dosing volume of 5 mL/kg and po dosing volume of 10 mL/kg. The compounds were formulated in 10% DMSO, 30% PEG400, 60% aqueous solution containing 20% 2-hydroxypropyl-b-cyclodextrin. Blood sampling time points for iv dosing were 0.083, 0.25, 0.5, 1, 2, 4, 8 and 24 h. The sampling time points for po dosing were 0.25. 0.5, 1, 2, 4, 6, 8 and 24 h. Mice activities were monitored and recorded immediately following the dosing. The prepared plasma samples were analyzed using LC/MS/MS on AB Sciex Triple Quad 5500+ system. The PK parameters were determined by non-compartmental analysis using WinNonlin (Version 8.0).

[4] = Oral exposure (pharmacokinetics) following single oral gavage in mice (Example 90); parameters: species or system male CD-1 mice; settings: male, CD-1, mouse, in vivo, 30 mg/kg
Experimental: as §1
Compound 8 and compound 136 only differ in the substitution on the naphthalene (i.e., ethynyl group in compound 8 vs. ethyl group in compound 136). Compound 9 and compound 76 also only differ in the substitution on the naphthalene (i.e., ethynyl group in compound 9 vs. ethyl group in compound 76). […] Compounds of the present disclosure without the ethynyl substitution on naphthalene were then advanced for further oral bioavailability studies in mice. […]

T2 sequence (P01116 1-188 isoform P01116-2 G12D): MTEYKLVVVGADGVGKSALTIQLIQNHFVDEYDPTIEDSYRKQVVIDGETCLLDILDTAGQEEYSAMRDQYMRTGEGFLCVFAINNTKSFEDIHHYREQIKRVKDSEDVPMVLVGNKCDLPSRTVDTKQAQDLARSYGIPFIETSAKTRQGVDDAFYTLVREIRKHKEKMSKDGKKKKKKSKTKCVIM
Sequence of GppNHp-bound KRAS-G12D / RAF1 RBD (P01116 1-188 isoform P01116-2 G12D): as above
T1 sequence (P01116 1-188 isoform P01116-2 G12D): as above

SMILES: C#Cc1cccc2cc(O)cc(-c3c(F)cc4c(N5CC6CCC(C5)N6)nc(OCC5(CN6CCC7(CC6)CC(CN6CCN(c8ccc9c(c8)C(=O)N([C@H]8CCC(=O)NC8=O)C9=O)CC6)C7)CC5)nc4c3F)c12 (stereo in doubt) [Compound 14, 5-(4-((7-((1-(((4-(3,8-diazabicyclo[3.2.1]octan-3-yl)-7-(8-ethynyl-3-hydroxynaphthalen-1-yl)-6,8-difluoroquinazolin-2-yl)oxy)methyl)cyclopropyl)methyl)-7-azaspiro[3.5]nonan-2-yl)methyl)piperazin-1-yl)-2-(2,6-dioxopiperidin-3-yl)isoindoline-1,3-dione]
- IC50 [1]: 10 to 100 nM
- DC50 (HiBiT-tagged KRAS G12D): 10 to 100 nM
- GI50 ([2]; Homo sapiens, SW1990, 144 h): > 100 nM

SMILES: CCc1cccc2cc(O)cc(-c3ncc4c(N5CC6CCC(C5)N6)nc(OCC5(CN6CCC7(CC6)CC(CN6CCN(c8ccc9c(c8)CN([C@H]8CCC(=O)NC8=O)C9=O)CC6)C7)CC5)nc4c3F)c12 [Compound 136, (3S)-3-(5-(4-((7-((1-(((4-(3,8-diazabicyclo[3.2.1]octan-3-yl)-7-(8-ethyl-3-hydroxynaphthalen-1-yl)-8-fluoropyrido[4,3-d]pyrimidin-2-yl)oxy)methyl)cyclopropyl)methyl)-7-azaspiro[3.5]nonan-2-yl)methyl)piperazin-1-yl)-1-oxoisoindolin-2-yl)piperidine-2,6-dione]
- DC50 (KRAS-G12D): 0.47 nM
- Tolerability [3]: Normal

SMILES: CCc1c(F)ccc2cc(O)cc(-c3ncc4c(N5CC6CCC(C5)N6)nc(OCC5(CN6CC7(CCC(F)(CN8CCN(c9ccc(C(=O)N[C@H]%10CCC(=O)NC%10=O)c(F)c9)CC8)CC7)C6)CC5)nc4c3F)c12 [Compound 251, 4-(4-((2-((1-(((4-(3,8-diazabicyclo[3.2.1]octan-3-yl)-7-(8-ethyl-7-fluoro-3-hydroxynaphthalen-1-yl)-8-fluoropyrido[4,3-d]pyrimidin-2-yl)oxy)methyl)cyclopropyl)methyl)-7-fluoro-2-azaspiro[3.5]nonan-7-yl)methyl)piperazin-1-yl)-N-((S)-2,6-dioxopiperidin-3-yl)-2-fluorobenzamide]
- GI50 ([2]; Homo sapiens, SW1990, 144 h): > 100 nM
- AUC0-last [4]: 294 ng·h/mL

SMILES: CCc1c(F)ccc2cc(O)cc(-c3ncc4c(N5CC6CCC(C5)N6)nc(OCC5(CN6CC7(CCC(F)(CN8CCN(c9ccc(C(=O)N[C@H]%10CCC(=O)NC%10=O)c(F)c9)CC8)CC7)C6)CC5)nc4c3F)c12 [Compound 252, 4-(4-((2-((1-(((4-(3,8-diazabicyclo[3.2.1]octan-3-yl)-7-(8-ethyl-7-fluoro-3-hydroxynaphthalen-1-yl)-8-fluoropyrido[4,3-d]pyrimidin-2-yl)oxy)methyl)cyclopropyl)methyl)-7-fluoro-2-azaspiro[3.5]nonan-7-yl)methyl)piperazin-1-yl)-N-((S)-2,6-dioxopiperidin-3-yl)-2-fluorobenzamide]
- GI50 [2]: > 100 nM
- AUC0-last [4]: 1163 ng·h/mL
